Legend:
[1] = system: iMylc® cells (immature myeloid cells induced by differentiation from iPS cells), IL-6 production; assay: IL-6 production activity in iMylc cells (immature dendritic cells); assay type: cell-based, human; settings: 20 h, 37 °C, 5% CO2, DMSO 0.1% (v/v), ELISA of culture supernatant, FIG. 1
Method: In this experiment, iMylc® cells (immature myeloid cells induced by differentiation from iPS cells) purchased from Mycen Technologies Inc. were used. These cells were cultured and subjected to evaluation tests using the dedicated maintenance medium for iMylc® cells provided by Mycen Technologies Inc.
The iMylc® cells were seeded into 96-well plates (1.0×10^4 cells/well/100 μL). After adding 100 μL/well of medium containing the test substance, the cells were incubated for 20 hours at 37 °C under 5% CO2. The final concentration of DMSO was adjusted to 0.1% (v/v). After incubation, the amount of IL-6 produced in the culture supernatant was measured using a commercially available kit (Human IL-6 ELISA MAX™ Deluxe Set, BioLegend) in accordance with the manufacturer's instructions.

[2] = system: CD4-positive helper T cells (human PBMCs cocultured with αMylc® cells); assay: Mixed lymphocyte reaction (MLR), helper T cell proliferation induced by αMylc cells; assay type: cell-based; settings: 10 μM; αMylc cells treated 24 h, MLR coculture 7 days; N=3; FIG. 5
Method: The test was conducted using a mixed lymphocyte reaction (MLR). In this method, αMylc® cells (derived from human peripheral blood) that had shown IL-6 production-promoting activity were treated with GlcCer[d18:2(4E,8Z)/18:0], GlcCer[t18:1(8Z)/20:0], GlcCer[d18:2(4E,8Z)/20:0], or GlcCer[d18:2(4E,8Z)/26:0] at concentrations of 1 or 10 μM for 24 hours.
During this period, peripheral blood mononuclear cells (PBMCs) isolated from human blood were labeled with the cell membrane-permeable dye carboxyfluorescein diacetate succinimidyl ester (CFDA-SE) by incubation for 7 minutes. After staining, αMylc® cells and PBMCs were mixed at a 1:2 ratio (2×10^4 cells: 4×10^4 cells) and cocultured for 7 days.
Subsequently, the mean fluorescence intensity (MFI) of CD4 (APC-stained; helper T cell marker) and CFDA (cell proliferation indicator) was quantified by flow cytometry (N=3). In the present MLR assay, the activation index was defined as the proliferation rate of helper T cells, and the gating strategy used in this analysis is shown in FIG. 4.

Structure (SMILES)	IL-6 production [1]	T-cell proliferation rate [2]
CCCCCCCCCCCCCCCCCCCCC(O)C(=O)N[C@@H](CO)[C@H](O)[C@H](O)CCCCCCCCCCCCCC (stereo partly shown) [Cer[t18:0/22:0]]	significant activity	
CCCCCCCCC/C=C\CC/C=C/[C@@H](O)[C@H](CO[C@@H]1O[C@H](CO)[C@@H](O)[C@H](O)[C@H]1O)NC(=O)[C@H](O)CCCCCCCCCCCCCCCCCCCCCCCC [GlcCer[d18:2(4E,8Z)/26:0]]	significant activity	a significant increase in T-cell proliferation rate
CCCCCCCCC/C=C\CCC[C@@H](O)[C@@H](O)[C@H](CO[C@@H]1OC(CO)[C@@H](O)[C@@H](O)C1O)NC(=O)[C@H](O)CCCCCCCCCCCCCCCCCC (stereo partly shown) [GlcCer[t18:1(8Z)/20:0]]	significant activity	

— US20260325559A1, “Immune Activator Agent” (Oryza Oil & Fat Chemical Co., Ltd., priority 2023, published 2026)
